Data on six molecules can be found in US20230192644A1, “PIPERIDINE-2,6-DIONES AS SMALL MOLECULE DEGRADERS OF HELIOS AND METHODS OF USE” (DANA-FARBER CANCER INSTITUTE, INC., priority 2020, published 2023).

Format in all cases: cell-based
Assay [1] deals with T1, IKZF1 (Homo sapiens, UniProt Q13422+Q96SW2).
T1 construct: knocked into the endogenous IKZF2 or IKZF1 locus of Molt4 cells; endogenous in cells; host or cells: Molt4 (CRISPR/Cas9 HiBit knock-in)
The experiment in a line: HiBit-IKZF1 degradation assay in Molt4 cells. The protocol: (§1) The HiBit tag was knocked into the endogenous IKZF2 or IKZF1 locus of Molt4 cells to generate a HiBit-IKZF2 or HiBit-IKZF1 fusion proteins via CRISPR/Cas9 gene editing. Cells were then treated with a 12 point concentration curve of the indicated compounds, and luminescence (corresponding to Helios abundance) was detected after 6 hours using the Nano-Glo® HiBit Lytic Detection system (Promega™). The concentration necessary to achieve 50% degradation (DC50) was calculated using Prism (GraphPad).

The target of assay [2] is T2, IKZF1 (Homo sapiens, UniProt Q13422).
T2 construct: expressed in transfected cells
T2 sequence (Q13422 83-213 isoform Q13422-7 limits assumed): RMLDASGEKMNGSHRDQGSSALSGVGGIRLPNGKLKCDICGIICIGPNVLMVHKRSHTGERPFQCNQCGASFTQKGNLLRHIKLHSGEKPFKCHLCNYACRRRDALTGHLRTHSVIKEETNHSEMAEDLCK
T2 sequence (Q96SW2 whole entry partner): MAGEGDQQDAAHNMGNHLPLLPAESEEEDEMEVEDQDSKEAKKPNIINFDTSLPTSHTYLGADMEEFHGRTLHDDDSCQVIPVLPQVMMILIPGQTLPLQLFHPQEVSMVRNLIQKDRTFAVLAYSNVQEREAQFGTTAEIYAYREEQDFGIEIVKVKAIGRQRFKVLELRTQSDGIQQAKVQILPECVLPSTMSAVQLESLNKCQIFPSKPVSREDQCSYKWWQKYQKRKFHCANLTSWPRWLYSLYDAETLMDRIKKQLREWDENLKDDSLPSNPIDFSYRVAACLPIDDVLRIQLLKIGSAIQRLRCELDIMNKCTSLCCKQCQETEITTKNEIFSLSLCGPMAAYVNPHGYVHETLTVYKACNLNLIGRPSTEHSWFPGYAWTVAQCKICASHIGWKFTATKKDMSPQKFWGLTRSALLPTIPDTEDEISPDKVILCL
T2 sequence (Q16531 whole entry partner): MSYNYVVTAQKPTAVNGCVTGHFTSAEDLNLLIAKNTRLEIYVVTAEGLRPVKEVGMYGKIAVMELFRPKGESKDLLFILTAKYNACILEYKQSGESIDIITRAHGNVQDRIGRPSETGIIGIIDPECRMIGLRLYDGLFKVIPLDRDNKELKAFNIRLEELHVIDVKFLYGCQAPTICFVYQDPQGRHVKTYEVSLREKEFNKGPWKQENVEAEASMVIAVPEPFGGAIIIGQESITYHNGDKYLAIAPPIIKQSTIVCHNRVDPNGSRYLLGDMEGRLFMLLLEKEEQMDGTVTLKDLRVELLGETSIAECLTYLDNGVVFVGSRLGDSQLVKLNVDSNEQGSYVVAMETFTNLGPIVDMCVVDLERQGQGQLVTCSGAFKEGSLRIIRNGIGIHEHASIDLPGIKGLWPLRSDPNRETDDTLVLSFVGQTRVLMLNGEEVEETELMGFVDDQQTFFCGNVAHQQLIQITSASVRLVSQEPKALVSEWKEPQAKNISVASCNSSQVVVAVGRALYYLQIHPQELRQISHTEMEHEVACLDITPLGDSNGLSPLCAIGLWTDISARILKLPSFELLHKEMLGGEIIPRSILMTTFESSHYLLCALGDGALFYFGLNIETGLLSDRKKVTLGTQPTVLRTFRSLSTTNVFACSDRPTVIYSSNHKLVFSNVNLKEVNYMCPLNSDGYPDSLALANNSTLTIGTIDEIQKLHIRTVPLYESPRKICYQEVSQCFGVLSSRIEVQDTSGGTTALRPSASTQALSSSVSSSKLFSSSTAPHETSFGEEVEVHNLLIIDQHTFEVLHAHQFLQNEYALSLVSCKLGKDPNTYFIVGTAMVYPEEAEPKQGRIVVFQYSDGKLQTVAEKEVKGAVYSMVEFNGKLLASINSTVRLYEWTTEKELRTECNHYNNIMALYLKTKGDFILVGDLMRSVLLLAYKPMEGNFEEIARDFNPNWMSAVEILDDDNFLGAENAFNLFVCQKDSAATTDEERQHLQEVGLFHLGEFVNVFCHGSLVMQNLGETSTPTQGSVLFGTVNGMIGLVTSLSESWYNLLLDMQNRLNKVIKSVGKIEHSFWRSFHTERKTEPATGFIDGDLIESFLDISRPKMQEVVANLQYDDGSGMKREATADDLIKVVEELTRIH
As to the kind of experiment: GFP-IKZF1 cellular degradation assay (eGFP fusion/mCherry reporter, Flip-In 293 cells). The protocol: IKZF1A and IKZF2A were subcloned into mammalian pcDNA5/FRT Vector (Ampicillin and Hygromycin B resistant) modified to contain MCS-eGFP-P2A-mCherry. […] Following 2-3 passage cycle, FACS (FACSAria™ II, BD) was used to enrich for cells expressing eGFP and mCherry.
(§2) Cells stably expressing the IKZF1A, or IKZF2A GFP fusions with mCherry reporter were seeded at 30-50% confluency in 384-well plates with 50 μL FluoroBrite™ DMEM media (Thermo Fisher Scientific™ A18967) containing 10% FBS per well a day before compound treatment. Compound titrations were dispensed using a D300e Digital Dispenser (HP), normalized to 0.5% DMSO, and incubated with cells for 5 hours.
The assay plate was imaged immediately using an Acumen High Content Imager (TTP Labtech) with 488 nm and 561 nm lasers in 2 μm×1 μm grid per well format. […] A series of image analysis steps (‘image analysis pipeline’) was constructed. First, the red and green channels were aligned and cropped to target the middle of each well (to avoid analysis of heavily clumped cells at the edges), and a background illumination function was calculated for both red and green channels of each well individually and subtracted to correct for illumination variations across the 384-well plate from various sources of error. An additional step was then applied to the green channel to suppress the analysis of large auto fluorescent artifacts and enhance the analysis of cell specific fluorescence by way of selecting for objects under a given size, 30 A.U., and with a given shape, speckles. mCherry-positive cells were then identified in the red channel filtering for objects between 8-60 pixels in diameter and using intensity to distinguish between clumped objects. The green channel was then segmented into GFP positive and negative areas and objects were labeled as GFP positive if at least 40% of it overlapped with a GFP positive area. The fraction of GFP-positive cells/mCherry-positive cells in each well was then calculated, and the green and red images were rescaled for visualization. The concentrations that lead to half degradation at 5 h (DC50, 5h) were calculated using the nonlinear fit variable slope model (GraphPad Software).

The target of assay [3] is T3, Helios (Homo sapiens, UniProt Q96SW2+Q9UKS7).
T3 construct: Immunoblots for Ikaros, Helios, and Actin from wildtype Jurkat cells; endogenous in cells; host or cells: wild-type Jurkat cells
T3 sequence (Q9UKS7 whole entry): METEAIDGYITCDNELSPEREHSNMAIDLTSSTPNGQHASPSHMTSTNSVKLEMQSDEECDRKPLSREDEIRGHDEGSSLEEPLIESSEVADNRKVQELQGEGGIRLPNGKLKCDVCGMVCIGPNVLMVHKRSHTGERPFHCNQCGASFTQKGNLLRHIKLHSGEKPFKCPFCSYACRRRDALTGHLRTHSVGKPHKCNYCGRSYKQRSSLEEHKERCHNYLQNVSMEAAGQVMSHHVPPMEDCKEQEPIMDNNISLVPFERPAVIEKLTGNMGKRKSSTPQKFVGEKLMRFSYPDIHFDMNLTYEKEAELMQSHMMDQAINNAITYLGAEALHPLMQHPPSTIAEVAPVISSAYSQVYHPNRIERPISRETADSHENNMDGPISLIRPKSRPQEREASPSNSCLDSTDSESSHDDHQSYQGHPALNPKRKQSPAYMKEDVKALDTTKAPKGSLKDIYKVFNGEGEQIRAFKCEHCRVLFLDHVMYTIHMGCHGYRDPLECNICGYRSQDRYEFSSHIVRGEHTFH
T3 sequence (Q96SW2 whole entry): as the sequence (Q96SW2 whole entry partner) above
T3 sequence (Q16531 whole entry partner): as the sequence (Q16531 whole entry partner) above
As to the kind of experiment: Degradation in Jurkat cells (immunoblot). Particulars: 4 hours, indicated concentrations. The protocol: Cells were lysed in M-PER® buffer (Thermo Scientific) containing protease/phosphatase inhibitor cocktail (Roche). Protein concentration was measured using a BCA assay (Pierce™). Equivalent amounts of each sample were loaded on 4-12% Bis-Tris gels (Invitrogen™), transferred to nitrocellulose membranes, and immunoblotted with the indicated antibodies. IRDye®800-labeled goat anti-rabbit IgG and IRDye®680-labeled goat anti-mouse IgG (LI-COR®) secondary antibodies were purchased from LI-COR®, and membranes were detected on an Odyssey® detection system (LI-COR® Biosciences).
Immunoblots for Ikaros, Helios, and Actin from wildtype Jurkat cells treated with compound 36 or 65 for 4 hours at the indicated concentrations were generated (FIG. 1).
On the technique in general: A western blot detects proteins with antibodies after separation by electrophoresis.

For assay [4], the system named is IKZF2. The experiment in a line: GFP-IKZF2 cellular degradation assay (eGFP fusion/mCherry reporter, Flip-In 293 cells). Particulars: Flip-In 293 cells stably expressing IKZF2 GFP fusion with mCherry reporter, 5 h. The protocol: IKZF1A and IKZF2A were subcloned into mammalian pcDNA5/FRT Vector (Ampicillin and Hygromycin B resistant) modified to contain MCS-eGFP-P2A-mCherry. Stable cell lines expressing eGFP-protein fusion and mCherry reporter were generated using Flip-In 293 system. Plasmid (0.3 μg) and pOG44 (4.7 μg) DNA were preincubated in 100 μL of Opti-MEM™ I (Gibco™, Life Technologies™) media containing 0.05 mg/mL Lipofectamine™ 2000 (Invitrogen™) for 20 min and added to Flip-In 293 cells containing 1.9 mL of DMEM media (Gibco™, Life Technologies™) per well in a 6-well plate format (Falcon, 353046). Cells were propagated for 48 h and were then transferred into a 10 cm^2 plate (Corning, 430165) in DMEM media containing 50 μg/mL of Hygromycin B (REF 10687010, Invitrogen™) as a selection marker. Following 2-3 passage cycle, FACS (FACSAria™ II, BD) was used to enrich for cells expressing eGFP and mCherry.
as §2
The assay plate was imaged immediately using an Acumen High Content Imager (TTP Labtech) with 488 nm and 561 nm lasers in […] per well format. The resulting images were analyzed using CellProfiler (Carpenter et al., Genome Biol. 2006, 7:R100). A series of image analysis steps (‘image analysis pipeline’) was constructed. First, the red and green channels were aligned and cropped to target the middle of each well (to avoid analysis of heavily clumped cells at the edges), and a background illumination function was calculated for both red and green channels of each well individually and subtracted to correct for illumination variations across the 384-well plate from various sources of error. An additional step was then applied to the green channel to suppress the analysis of large auto fluorescent artifacts and enhance the analysis of cell specific fluorescence by way of selecting for objects under a given size, 30 A.U., and with a given shape, speckles. mCherry-positive cells were then identified in the red channel filtering for objects between 8-60 pixels in diameter and using intensity to distinguish between clumped objects. The green channel was then segmented into GFP positive and negative areas and objects were labeled as GFP positive if at least 40% of it overlapped with a GFP positive area. The fraction of GFP-positive cells/mCherry-positive cells in each well was then calculated, and the green and red images were rescaled for visualization. The concentrations that lead to half degradation at 5 h (DC50, 5h) were calculated using the nonlinear fit variable slope model (GraphPad Software).

Assay [5] has as its target T4, IKZF2 (Homo sapiens, UniProt Q96SW2+Q9UKS7).
T4 construct: knocked into the endogenous IKZF2 or IKZF1 locus of Molt4 cells; endogenous in cells; host or cells: Molt4 (CRISPR/Cas9 HiBit knock-in)
As to the kind of experiment: HiBit-IKZF2 degradation assay in Molt4 cells. The protocol: as §1

Where [6] appears, read: Molt4 cells with endogenous HiBit-IKZF1 knock-in, 6 hours, Nano-Glo HiBit luminescence; read-out: IKZF1 DC50.
[7] abbreviates: Flip-In 293 cells stably expressing IKZF1 GFP fusion with mCherry reporter, 5 h; read-out: GFP IKZF1 DC50.
[8] abbreviates: Molt4 cells with endogenous HiBit-IKZF2 knock-in, 6 hours, Nano-Glo HiBit luminescence; read-out: IKZF2 DC50.
[9] abbreviates: read-out: IKZF1 DC50; Molt4 cells with endogenous HiBit-IKZF1 knock-in, 6 hours, Nano-Glo HiBit luminescence.
Setting [10] is: read-out: GFP IKZF1 DC50; Flip-In 293 cells stably expressing IKZF1 GFP fusion with mCherry reporter, 5 h.
[11] abbreviates: read-out: IKZF2 DC50; Molt4 cells with endogenous HiBit-IKZF2 knock-in, 6 hours, Nano-Glo HiBit luminescence.

Structures are written as SMILES. Read-outs that look alike come from different tables or passages of the source.

T4 sequence (Q9UKS7 whole entry): as the sequence (Q9UKS7 whole entry) above
T4 sequence (Q96SW2 whole entry): as the sequence (Q96SW2 whole entry partner) above
T4 sequence (Q16531 whole entry partner): as the sequence (Q16531 whole entry partner) above
T1 sequence (Q13422 whole entry): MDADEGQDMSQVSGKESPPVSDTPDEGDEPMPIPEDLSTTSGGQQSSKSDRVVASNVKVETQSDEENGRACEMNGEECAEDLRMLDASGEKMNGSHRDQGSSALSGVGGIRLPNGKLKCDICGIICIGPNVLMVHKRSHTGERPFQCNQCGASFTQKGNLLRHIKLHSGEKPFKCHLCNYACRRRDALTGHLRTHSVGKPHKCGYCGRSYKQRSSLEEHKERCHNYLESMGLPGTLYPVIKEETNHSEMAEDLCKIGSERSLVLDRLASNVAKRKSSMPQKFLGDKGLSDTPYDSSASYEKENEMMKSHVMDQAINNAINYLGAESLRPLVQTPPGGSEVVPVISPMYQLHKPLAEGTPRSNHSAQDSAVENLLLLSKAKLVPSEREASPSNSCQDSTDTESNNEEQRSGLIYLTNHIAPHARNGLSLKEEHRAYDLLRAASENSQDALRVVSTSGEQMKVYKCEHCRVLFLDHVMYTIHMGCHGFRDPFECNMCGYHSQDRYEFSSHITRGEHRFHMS
T1 sequence (Q96SW2 whole entry): as the sequence (Q96SW2 whole entry partner) above
T1 sequence (Q16531 whole entry partner): as the sequence (Q16531 whole entry partner) above

Turning to `CN(C)C(CC(=O)Nc1cccc(C(F)(F)F)c1)c1cccc(NC2=CC(=O)N(C3CCC(=O)NC3=O)C2=O)c1` (stereo not drawn) [Compound 36, 3-(dimethylamino)-3-(3-((1-(2,6-dioxopiperidin-3-yl)-2,5-dioxo-2,5-dihydro-1H-pyrrol-3-yl)amino)phenyl)-N-(3-(trifluoromethyl)phenyl)propanamide], the DC50 in assay [1] (setting [6]) is 0.015 µM; in assay [2] (setting [7]), 0.0054 µM; in assay [4], 0.0023 µM; in assay [5] (setting [8]), 0.0025 µM. The “Helios degradation (immunoblot, FIG. 1)” value in assay [3] was “Helios degradation”.
In the case of `CCC(NCCc1ccc(C(F)(F)F)c(Cl)c1)c1cccc(NC2=CC(=O)N(C3CCC(=O)NC3=O)C2=O)c1` (stereo not drawn) [Compound 60, 3-(3-((3-(1-((3-chloro-4-(trifluoromethyl)phenethyl)-amino)propyl)phenyl)amino)-2,5-dioxo-2,5-dihydro-1H-pyrrol-1-yl)piperidine-2,6-dione], the DC50 in assay [1] (setting [9]) turned out to be 0.24 µM; in assay [2] (setting [10]), 0.018 µM; in assay [4], 0.006 µM; in assay [5] (setting [11]), 0.042 µM.
With `CC(C)(NCCc1cccc(C(F)(F)F)c1)c1cccc(NC2=CC(=O)N(C3CCC(=O)NC3=O)C2=O)c1` (stereo not drawn) [Compound 65, 3-(2,5-dioxo-3-((3-(2-((3-(trifluoromethyl)phenethyl)amino)propan-2-yl)phenyl)amino)-2,5-dihydro-1H-pyrrol-1-yl)piperidine-2,6-dione], the DC50 in assay [1] (setting [9]) amounted to 0.018 µM; in assay [2] (setting [10]), 0.0051 µM; in assay [4], 0.0036 µM; in assay [5] (setting [11]), 0.017 µM. The “Helios degradation (immunoblot, FIG. 1)” value in assay [3] is “Helios degradation”.
With `CC(C)(NCCc1ccc(C(F)(F)F)c(Cl)c1)c1cccc(NC2=CC(=O)N(C3CCC(=O)NC3=O)C2=O)c1` (stereo not drawn) [Compound 66, 3-(3-((3-(2-((3-chloro-4-(trifluoromethyl)phenethyl)amino)propan-2-yl)phenyl)amino)-2,5-dioxo-2,5-dihydro-1H-pyrrol-1-yl)piperidine-2,6-dione], the DC50 in assay [1] (setting [9]) is 0.0038 µM; in assay [2] (setting [10]) it was 0.0011 µM; in assay [4] it was 0.0012 µM; in assay [5] (setting [11]) it was 0.0023 µM.
Consider `CN(CCc1ccc(C(F)(F)F)c(Cl)c1)C(C)(C)c1cccc(NC2=CC(=O)N(C3CCC(=O)NC3=O)C2=O)c1` (stereo not drawn) [Compound 67, 3-(3-((3-(2-((3-chloro-4-(trifluoromethyl)phenethyl)(methyl)amino)propan-2-yl)phenyl)-amino)-2,5-dioxo-2,5-dihydro-1H-pyrrol-1-yl)piperidine-2,6-dione], for which the 50% degradation concentration (DC50) in assay [1] (setting [6]) is 0.047 µM; in assay [2] (setting [7]) it was 0.011 µM; in assay [4], 0.012 µM; in assay [5] (setting [8]) it was 0.025 µM.
With `CC(C)(CCNc1ccc(C(F)(F)F)c(Cl)c1)c1cccc(NC2=CC(=O)N(C3CCC(=O)NC3=O)C2=O)c1` (stereo not drawn) [Compound 80, 3-(3-((3-(4-((3-chloro-4-(trifluoromethyl)phenyl)amino)-2-methylbutan-2-yl)phenyl)amino)-2,5-dioxo-2,5-dihydro-1H-pyrrol-1-yl)piperidine-2,6-dione], the DC50 came out at 0.05 µM in assay [2] (setting [7]) and 0.024 µM in assay [4].

Usually DC50 stands for the concentration giving 50% degradation.
